Data on six compounds can be found in publication PMC12069901 (Acta Pharmaceutica Sinica. B, 2025).

Data set [1] has as its system STAT3. In words: STAT3 dimerization assay and immunoprecipitation. Type of data set: cell-based, rat. Particulars: PDGF-BB-induced VSMCs; CAB 3–5 μmol/L, AG490 20 μmol/L, stattic 1 μmol/L.
A further data set deals with CDKN1B. Nature of the data set: Western blot, CDKN1B expression in PDGF-BB-induced VSMCs. The format is cell-based, rat. Conditions: 24 h, CAB 1–5 μmol/L, stattic 1 μmol/L.
Data set [2] concerns STAT3. In words: Western blot, STAT3 phosphorylation in PDGF-BB-induced VSMCs. Conditions: for STAT3 phosphorylation: PDGF-BB 24 h, CAB 1–5 μmol/L, stattic 1 μmol/L. The format is cell-based, rat. Background: In western blotting, separated proteins are transferred to a membrane and probed.
Data set [3] has as its system CIAPIN1. In words: Western blot, CIAPIN1 expression in PDGF-BB-induced VSMCs. The format is cell-based, rat. Particulars: 24 h; CAB 1–5 μmol/L, stattic 1 μmol/L.
Data set [4] has as its system PDGF-BB-induced VSMCs. In words: Cell cycle progression analysis. The format is cell-based, rat. Conditions: CAB-treated versus PDGF-BB-induced VSMCs, 24 h.
The subject of another data set is p38. Nature of the data set: Western blot, p38 phosphorylation in PDGF-BB-induced VSMCs. The format is cell-based, rat. Conditions: 1–5 μmol/L, PDGF-BB 15 min.
For the next data set, the system named is KLF4. Nature of the data set: Western blot, KLF4 expression in PDGF-BB-induced VSMCs. Particulars: 24 h; CAB 1–5 μmol/L, stattic 1 μmol/L. Type of data set: cell-based, rat.
For another data set, the system named is rat carotid arteries. Nature of the data set: Balloon injury-induced neointima formation in rat carotid artery. The format is in vivo, Sprague–Dawley rats. Particulars: 20 mg/kg orally daily, 14 days.
For the next data set, the system named is His-STAT3. Nature of the data set: His-tag pull-down assay with CAB-conjugated Sepharose 6B. Type of data set: binding, Mus musculus.
Another data set concerns rat Ciapin1 promoter. Nature of the data set: Ciapin1 promoter luciferase assay. Particulars: PDGF-BB 6 h. The format is cell-based.
The subject of another data set is cyclin E1. Nature of the data set: Western blot, cyclin E1 expression. Type of data set: cell-based, rat. Particulars: 1–5 μmol/L, 24 h.
The subject of a further data set is JAK2. Nature of the data set: Western blot, JAK2 expression and phosphorylation in PDGF-BB-induced VSMCs. Type of data set: cell-based, rat. Particulars: for PDGF-BB-induced JAK2 expression: 24 h; for PDGF-BB-induced JAK2 expression / JAK2 phosphorylation: CAB 1–5 μmol/L, stattic 1 μmol/L; for JAK2 phosphorylation: PDGF-BB 24 h.
The subject of the next data set is SRC. Nature of the data set: Western blot, SRC phosphorylation in PDGF-BB-induced VSMCs. The format is cell-based, rat. Particulars: 5 μmol/L, PDGF-BB 15 min.
Data set [5] concerns MMP9. In words: Gelatin zymography, MMP9 activity. The format is cell-based, rat. Particulars: 1–5 μmol/L, PDGF-BB 24 h.
The next data set relates to CDK4. Nature of the data set: Western blot, CDK4 expression. Type of data set: cell-based, rat. Conditions: 1–5 μmol/L, 24 h.
In data set [6] the test system is VSMCs. In words: MTT cytotoxicity assay in VSMCs. Particulars: 5 μmol/L, 26 h. Type of data set: cell-based, rat.
In a further data set the test system is ERK1/2. Nature of the data set: Western blot, ERK1/2 phosphorylation in PDGF-BB-induced VSMCs. Type of data set: cell-based, rat. Conditions: 1–5 μmol/L, PDGF-BB 15 min.
Another data set has as its system AKT. In words: Western blot, AKT phosphorylation in PDGF-BB-induced VSMCs. The format is cell-based, rat. Particulars: 1–5 μmol/L, PDGF-BB 15 min.
The test system of data set [7] is STAT3. In words: STAT3 nuclear translocation. Particulars: PDGF-BB 15 min. The format is cell-based, rat.
The next data set deals with cyclin D1. In words: Western blot, cyclin D1 expression. The format is cell-based, rat. Particulars: 1–5 μmol/L, 24 h.
For data set [8], the system named is VSMCs. In words: Annexin V/PI apoptosis detection assay. Particulars: 5 μmol/L, 26 h, compared with control. Type of data set: cell-based, rat.
The subject of data set [9] is STAT3. In words: STAT3 dual-luciferase reporter assay. Type of data set: cell-based, rat. Particulars: PDGF-BB 6 h.
Data set [10] concerns MMP9. Nature of the data set: Western blot, MMP9 expression. The format is cell-based, rat. Conditions: 1–5 μmol/L, 24 h.
Data set [11] relates to CIAPIN1. Nature of the data set: CIAPIN1 nuclear accumulation. Conditions: PDGF-BB-induced VSMCs, 24 h. The format is cell-based, rat.
Data set [12] is classed as in vivo, Sprague–Dawley rats.
In the next data set the test system is SPP1. In words: Western blot, SPP1 expression in PDGF-BB-induced VSMCs. The format is cell-based, rat. Particulars: 24 h; CAB 1–5 μmol/L, stattic 1 μmol/L.
A further data set deals with CDK2. In words: Western blot, CDK2 expression. The format is cell-based, rat. Conditions: 1–5 μmol/L, 24 h.
In another data set the test system is PCNA. In words: Western blot, PCNA expression. The format is cell-based, rat. Particulars: 1–5 μmol/L, 24 h.
Data set [13] relates to Ciapin1 promoter (STAT3-RE1). Nature of the data set: ChIP-PCR assay, STAT3 binding to Ciapin1 promoter. The format is cell-based, rat. Particulars: CAB 2 h, then PDGF-BB 6 h.
The next data set has as its system PDGFR-β. Nature of the data set: Western blot, PDGFR-β phosphorylation in PDGF-BB-induced VSMCs. Conditions: 1–5 μmol/L, PDGF-BB 15 min. Type of data set: cell-based, rat.
The next data set concerns phospho-pRb (p-pRb). In words: Western blot, phospho-pRb. The format is cell-based, rat. Particulars: 1–5 μmol/L, 24 h.
For data set [14], the target named is STAT3 protein (amino acids 127–688) (Homo sapiens, UniProt P40763). Nature of the data set: Surface plasmon resonance. Particulars: immobilized STAT3 (127–688 aa), 25 °C. Type of data set: binding. A general note: Surface plasmon resonance follows binding to a sensor surface in real time, without labels.
Sequence of STAT3 protein (amino acids 127–688) (P40763 127-688): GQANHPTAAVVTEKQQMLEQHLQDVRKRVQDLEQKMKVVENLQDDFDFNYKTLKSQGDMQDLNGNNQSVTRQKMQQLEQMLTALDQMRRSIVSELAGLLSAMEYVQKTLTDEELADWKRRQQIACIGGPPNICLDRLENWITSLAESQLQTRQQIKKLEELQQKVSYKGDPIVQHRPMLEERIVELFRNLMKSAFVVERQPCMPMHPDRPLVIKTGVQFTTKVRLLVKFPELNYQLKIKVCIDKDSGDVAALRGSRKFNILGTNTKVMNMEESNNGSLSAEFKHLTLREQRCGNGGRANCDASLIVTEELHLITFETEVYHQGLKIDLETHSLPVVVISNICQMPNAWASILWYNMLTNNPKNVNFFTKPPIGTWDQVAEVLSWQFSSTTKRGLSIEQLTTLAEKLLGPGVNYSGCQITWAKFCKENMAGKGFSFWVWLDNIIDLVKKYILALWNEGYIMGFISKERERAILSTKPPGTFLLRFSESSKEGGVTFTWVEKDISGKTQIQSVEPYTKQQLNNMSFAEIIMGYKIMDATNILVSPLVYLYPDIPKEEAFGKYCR
The subject of data set [15] is PDGF-BB-induced VSMCs. In words: MTT assay, PDGF-BB-induced VSMC proliferation. Type of data set: cell-based, rat. Conditions: 5 μmol/L for 2 h, then PDGF-BB 25 ng/mL for 24 h.
Where [16] appears, read: rat serum, after 2 weeks of CAB administration.

pKd: −log10 of the molar value.

On to `N#C/C(=C/c1ccc(O)c(O)c1)C(=O)NCc1ccccc1` [AG490], for which the STAT3 dimerization result with STAT3 [1] is on record as “inhibitory effect”.

Turning to `Nc1ccc(C(=O)Oc2ccc3[nH]c4ccccc4c3c2)cc1` [CAB, 9H-Carbazol-3-yl 4-aminobenzoate], in the data set with CDKN1B, the CDKN1B expression result is recorded as “dose-dependently restored”. In the data set with STAT3 [2] (1–5 μmol/L, PDGF-BB 15 min), the “PDGF-BB-induced STAT3 tyrosine (Tyr) 705 phosphorylation” value is listed as “significantly inhibited” and the “STAT3 serine (Ser) 727 phosphorylation” value is “without affecting”. Moreover, the STAT3 phosphorylation entry in the data set on STAT3 [2] is recorded as “attenuated”. Also, in the data set on CIAPIN1 [3], the “PDGF-BB-induced CIAPIN1 expression” value is “significantly inhibited”. Further, the G0/G1 phase proportion result in the data set on PDGF-BB-induced VSMCs [4] is given as “increase”. For the same compound, the “PDGF-BB-stimulated p38 phosphorylation” value with p38 was “did not affect”. The “PDGF-BB-induced expression of KLF4” value in the data set on KLF4 is “decreased”. In addition, the “CIAPIN1 expression in the neointima region” value in the data set on rat carotid arteries is reported as “remarkably decreased”. In the data set with rat carotid arteries (BI + CAB vs BI), the arterial intimal areas entry was “lower”, the “circumference of the external elastic lamina (EEL)” value is given as “no differences” and the media area entry is recorded as “no differences”. Besides, in the data set on rat carotid arteries (vs BI group), the “balloon injury-induced neointima formation” value is reported as “significantly attenuated” and the “expression of PCNA in carotid arteries” value is “significantly decreased”. Besides, the “binding to STAT3 with mutated SH2 residues” value in the data set with His-STAT3 (Ile59, Arg609, and Glu612 mutated, compared to full-length) was “did not bind to STAT3 strongly”. The “pull-down of full-length STAT3 by CAB-conjugated beads” value in the data set on His-STAT3 (full-length His-STAT3) is “successfully pulled down”. In the data set with His-STAT3 (ΔSH2), the “pull-down of STAT3 fragments lacking SH2 by CAB-conjugated beads” value is “did not pull down”. Further, the “PDGF-BB-induced CIAPIN1 luciferase expression” value with rat Ciapin1 promoter was “inhibited”. Further, the “PDGF-BB-induced cyclin E1 expression” value in the data set with cyclin E1 is reported as “significantly inhibited”. Further, the “PDGF-BB-induced JAK2 phosphorylation” value in the data set with JAK2 (5 μmol/L, PDGF-BB 15 min) is “did not inhibit”. Also, in the data set on JAK2, the “PDGF-BB-induced JAK2 expression” value is listed as “significantly inhibited” and the JAK2 phosphorylation result was “attenuated”. Also, the STAT3 dimerization entry in the data set on STAT3 [1] is given as “inhibited”. Besides, the “PDGF-BB-induced SRC phosphorylation” value in the data set with SRC is listed as “did not inhibit”. Besides, the MMP9 proteolytic activity entry in the data set on MMP9 [5] is “significantly inhibited”. The “PDGF-BB-induced CDK4 expression” value in the data set with CDK4 is “significantly inhibited”. In addition, the “cytotoxic effects in VSMCs” value in the data set on VSMCs [6] is recorded as “did not induce cytotoxic effects”. Also, the “PDGF-BB-stimulated ERK1/2 phosphorylation” value with ERK1/2 is “did not affect”. For the same compound, the “PDGF-BB-stimulated AKT phosphorylation” value in the data set with AKT is given as “did not affect”. The “PDGF-BB-increased STAT3 phosphorylation and nuclear translocation” value in the data set with STAT3 [7] was “blocked”. Also, the “PDGF-BB-induced cyclin D1 expression” value in the data set with cyclin D1 was “significantly inhibited”. Besides, the cell apoptosis induction entry in the data set with VSMCs [8] is reported as “no signs of cell apoptosis induction”. Further, the “PDGF-BB-induced STAT3 DNA binding activity (luciferase reporter)” value in the data set with STAT3 [9] is reported as “inhibited”. In the data set with MMP9 [10], the “PDGF-BB-induced MMP9 expression” value is given as “significantly inhibited”. The CIAPIN1 nuclear accumulation result in the data set with CIAPIN1 [11] is recorded as “significantly reduced”. In [12] (setting [16]), the “glutamic pyruvic transaminase (GPT/ALT, soluble) level” value is listed as “no alterations” and the “glutamic-oxaloacetic transaminase 1 (GOT1/AST, soluble) level” value was “no alterations”. For the same compound, in data set [12] (rat, 20 mg/kg orally daily), the “histological morphology of liver, heart, lung, and kidney” value is “no significant changes”; the “side effects, such as diarrhea and weight loss” value is “did not show any side effects”. For the same compound, in data set [12] (rat, 14 days post-injury, compared with control group), the “cell death induction (TUNEL staining) in carotid arteries” value was “no signs of cell death induction”. Besides, the “PDGF-BB-induced expression of SPP1” value with SPP1 is reported as “decreased”. For the same compound, the “PDGF-BB-induced CDK2 expression” value in the data set on CDK2 was “significantly inhibited”. For the same compound, the “PDGF-BB-induced PCNA expression” value in the data set with PCNA is given as “significantly inhibited”. In addition, in data set [13], the “binding of STAT3 to the Ciapin1 promoter region (protein/DNA binding)” value is listed as “inhibited”. Further, the “PDGF-BB-stimulated PDGFR-β phosphorylation” value with PDGFR-β was “did not affect”. Besides, the “PDGF-BB-induced phospho-pRb (p-pRb)” value in the data set with phospho-pRb (p-pRb) was “significantly inhibited”.

By pKd is commonly meant −log10 of the Kd, conventionally taken in molar units. Take `O=[N+]([O-])c1ccc2c(c1)S(=O)(=O)C=C2` [Stattic, reference compound]: in the data set with CDKN1B, the CDKN1B expression entry is on record as “increased”. In addition, in the data set on STAT3 [2], the STAT3 phosphorylation entry is “significantly inhibited”. Moreover, in the data set with CIAPIN1 [3], the “PDGF-BB-induced CIAPIN1 expression” value is recorded as “significantly inhibited”. In addition, in the data set with KLF4, the “PDGF-BB-induced expression of KLF4” value is listed as “inhibited”. For the same compound, in the data set with JAK2, the “PDGF-BB-induced JAK2 expression” value is on record as “significantly inhibited” and the JAK2 phosphorylation entry is recorded as “significantly inhibited”. Further, in the data set with STAT3 [1], the STAT3 dimerization entry is “inhibitory effect”. Besides, the CIAPIN1 nuclear accumulation result in the data set with CIAPIN1 [11] is listed as “significantly reduced”. For the same compound, the “PDGF-BB-induced expression of SPP1” value in the data set on SPP1 is “inhibited”. In [14], the “Ka, association rate constant” value was 1002 mol⁻¹ L⁻¹ s⁻¹ and the “Kd, dissociation rate constant” value worked out at 0.009083 s⁻¹. Further, the pKd in data set [14] (read-out: KD, equilibrium constant) was 5.04.

As for `O=C(Oc1ccc2[nH]c3ccccc3c2c1)c1ccc(O)cc1` [compound 2, 9H-Carbazol-3-yl 4-hydroxybenzoate], in the data set on PDGF-BB-induced VSMCs [15], the “PDGF-BB-stimulated VSMC proliferation” value is given as “significantly inhibited”.

Regarding `N=C(N)Nc1ccc(C(=O)Oc2ccc3[nH]c4ccccc4c3c2)cc1` [compound 3, 9H-Carbazol-3-yl 4-guanidinobenzoate], the “PDGF-BB-stimulated VSMC proliferation” value with PDGF-BB-induced VSMCs [15] is listed as “significantly inhibited”.

Take `CC(=O)Nc1ccc(C(=O)Oc2ccc3[nH]c4ccccc4c3c2)cc1` [compound 4, 9H-Carbazol-3-yl 4-acetamidobenzoate]: in the data set on PDGF-BB-induced VSMCs [15], the “PDGF-BB-stimulated VSMC proliferation” value is listed as “significantly inhibited”.
